Measured values published in patent US20240147927A1, “METHODS OF HIGH PRODUCTION OF POLYPHENOLS FROM RED LETTUCES AND USES THEREOF” (SignalChem Plantech Corporation, priority 2021, published 2024).

Experiments:
[1] = test system: TNF-α production in PMA-differentiated THP1 macrophages; experiment: TNF-α production in LPS treated PMA-differentiated THP1 macrophages (ELISA); type: cell-based, human; conditions: 1.23, 3.7, 11.11, 33.33 and 100 μg/mL, then LPS 48 h
Protocol: (§1) Methods: […] THP1 monocytes were differentiated to macrophages using phorbol 12-myristate 13-acetate (PMA, Sigma, P1585). The […] The culture supernatant was collected from each well and replaced with 100 μl of fresh 1% FBS medium. […] 50 μl of cultured supernatant was used for measuring TNF-α and IL6 concentration. TNF-α was measured using human TNF-α DuoSet ELISA kit (R&D systems, DY210-05) and IL6 was determined using human IL6 DuoSet ELISA kit (R&D systems, DY206-05) according to the manufacturer's instructions. […] THP1 monocytes were differentiated to macrophages as previously described. […] Untreated cells were used as the control. After incubation, cell cultures were then stimulated with LPS for an additional 48 h (total volume of 200 μL per well). The culture supernatant was collected from each well and replaced with 100 μL of fresh 1% FBS medium. […] 50 μl of cultured supernatant was used for measuring TNF-α and IL6 concentration. TNF-α was measured using human TNF-α DuoSet ELISA kit and IL6 was determined using human IL6 DuoSet ELISA kit according to the manufacturer's instructions.

[2] = test system: IL-6 production in PMA-differentiated THP1 macrophages; experiment: IL-6 production in LPS treated PMA-differentiated THP1 macrophages (ELISA); type: cell-based, human; conditions: 1.23, 3.7, 11.11, 33.33 and 100 μg/mL, then LPS 48 h
Protocol: as §1

[3] = test system: nitric oxide (NO) production in PMA-differentiated THP1 macrophages; experiment: Nitric oxide (NO) production in LPS treated PMA-differentiated THP1 macrophages; type: cell-based, human; conditions: pre-treatment 2 h, then LPS 48 h
Protocol: Methods: […] Total nitrite was measured using nitric oxide colorimetric assay kit (BioVision, […]-200) according to the manufacturer's instructions. […] Untreated cells were used as the control. After incubation, cell cultures were then stimulated with LPS for an additional 48 h (total volume of 200 μl per well). The culture supernatant was collected from each well and replaced with 100 μl of fresh 1% FBS medium. […] 42.5 μL of cultured supernatant was used for measuring nitrite concentration. Total nitrite was measured using nitric oxide colorimetric assay kit according to the manufacturer's instructions.

[4] = test system: MCF7 cells; type: cell-based
[5] = test system: THP1 cells; type: cell-based
[6] = test system: Jurkat cells; type: cell-based

SMILES	effect on secretion of TNF-α [1]	effect on secretion of IL-6 [2]	NO, EC50 [3]	cytotoxicity towards MCF7 cell-line [4]	cytotoxicity towards THP1 cell-line [5]	Jurkat, TC50 [6]
O=C(/C=C/c1ccc(O)c(O)c1)O[C@@H]1C[C@](O)(C(=O)O)C[C@@H](O)[C@H]1O [Neochlorogenic acid, 3-O-caffeoylquinic acid]	minimal effects	minimal effects	80.5 µg/mL	–	–	–
O=C(/C=C/c1ccc(O)c(O)c1)O[C@H]1[C@H](O)C[C@](O)(C(=O)O)C[C@H]1O [4-CQA, 4-O-caffeoylquinic acid]	minimal effects	minimal effects	71.9 µg/mL	did not appear to be individually cytotoxic	did not appear to be individually cytotoxic	49.9 µg/mL
O=C(C=Cc1ccc(O)c(O)c1)O[C@@H](C(=O)O)[C@@H](OC(=O)C=Cc1ccc(O)c(O)c1)C(=O)O [Chicoric acid, (2R,3R)-O-dicaffeoyltartaric acid]	minimal effects	minimal effects	25.3 µg/mL	–	–	–
OC[C@H]1O[C@@H](Oc2cc3c(O)cc(O)cc3[o+]c2-c2ccc(O)c(O)c2)[C@H](O)[C@@H](O)[C@H]1O [Cyanidin 3-galactoside, cyanidin 3-galactoside]	minimal effects	minimal effects	98.4 µg/mL	did not appear to be individually cytotoxic	did not appear to be individually cytotoxic	53.5 µg/mL
